Where “and” joins values, the source holds several entries; their conditions need not be identical. Equal entries are not always repeated. Entries after “also recorded” stand apart in the source; their conditions may differ.
Experiments:
NMDAR channels = system: NMDAR channels; set-up: method as in MacDonald et al., 1991; conditions: ref MacDonald et al., 1991; cited from earlier work
NCX = system: NCX; set-up: method as in Matsuda et al., 2001; conditions: ref Matsuda et al., 2001; read-out: IC50 for SEA0400 inhibition of NCX in neurons; cited from earlier work
[1] = target: NMDA receptor (NMDAR) currents (Rattus norvegicus, UniProt P35439+Q00959+Q00960); experiment: Whole-cell patch-clamp recording of NMDA-activated currents in cortical neurons of primary culture; type: cell-based; conditions: for change of fraction of current blocked in the presence of SEA0400: 50 nM SEA0400, 10 µM KB-R7943, 10 µM ATL, 1 µM DES; for increase of IC50 for NMDAR inhibition in the presence of SEA0400: 50 nM SEA0400 versus control
NMDAR currents = system: NMDAR currents; set-up: method as in Sibarov et al., 2015; conditions: 10 µM KB-R7943; ref Sibarov et al., 2015; cited from earlier work

Sequence of NMDA receptor (NMDAR) currents (Q00960 27-1482 limits assumed, other chains not shown): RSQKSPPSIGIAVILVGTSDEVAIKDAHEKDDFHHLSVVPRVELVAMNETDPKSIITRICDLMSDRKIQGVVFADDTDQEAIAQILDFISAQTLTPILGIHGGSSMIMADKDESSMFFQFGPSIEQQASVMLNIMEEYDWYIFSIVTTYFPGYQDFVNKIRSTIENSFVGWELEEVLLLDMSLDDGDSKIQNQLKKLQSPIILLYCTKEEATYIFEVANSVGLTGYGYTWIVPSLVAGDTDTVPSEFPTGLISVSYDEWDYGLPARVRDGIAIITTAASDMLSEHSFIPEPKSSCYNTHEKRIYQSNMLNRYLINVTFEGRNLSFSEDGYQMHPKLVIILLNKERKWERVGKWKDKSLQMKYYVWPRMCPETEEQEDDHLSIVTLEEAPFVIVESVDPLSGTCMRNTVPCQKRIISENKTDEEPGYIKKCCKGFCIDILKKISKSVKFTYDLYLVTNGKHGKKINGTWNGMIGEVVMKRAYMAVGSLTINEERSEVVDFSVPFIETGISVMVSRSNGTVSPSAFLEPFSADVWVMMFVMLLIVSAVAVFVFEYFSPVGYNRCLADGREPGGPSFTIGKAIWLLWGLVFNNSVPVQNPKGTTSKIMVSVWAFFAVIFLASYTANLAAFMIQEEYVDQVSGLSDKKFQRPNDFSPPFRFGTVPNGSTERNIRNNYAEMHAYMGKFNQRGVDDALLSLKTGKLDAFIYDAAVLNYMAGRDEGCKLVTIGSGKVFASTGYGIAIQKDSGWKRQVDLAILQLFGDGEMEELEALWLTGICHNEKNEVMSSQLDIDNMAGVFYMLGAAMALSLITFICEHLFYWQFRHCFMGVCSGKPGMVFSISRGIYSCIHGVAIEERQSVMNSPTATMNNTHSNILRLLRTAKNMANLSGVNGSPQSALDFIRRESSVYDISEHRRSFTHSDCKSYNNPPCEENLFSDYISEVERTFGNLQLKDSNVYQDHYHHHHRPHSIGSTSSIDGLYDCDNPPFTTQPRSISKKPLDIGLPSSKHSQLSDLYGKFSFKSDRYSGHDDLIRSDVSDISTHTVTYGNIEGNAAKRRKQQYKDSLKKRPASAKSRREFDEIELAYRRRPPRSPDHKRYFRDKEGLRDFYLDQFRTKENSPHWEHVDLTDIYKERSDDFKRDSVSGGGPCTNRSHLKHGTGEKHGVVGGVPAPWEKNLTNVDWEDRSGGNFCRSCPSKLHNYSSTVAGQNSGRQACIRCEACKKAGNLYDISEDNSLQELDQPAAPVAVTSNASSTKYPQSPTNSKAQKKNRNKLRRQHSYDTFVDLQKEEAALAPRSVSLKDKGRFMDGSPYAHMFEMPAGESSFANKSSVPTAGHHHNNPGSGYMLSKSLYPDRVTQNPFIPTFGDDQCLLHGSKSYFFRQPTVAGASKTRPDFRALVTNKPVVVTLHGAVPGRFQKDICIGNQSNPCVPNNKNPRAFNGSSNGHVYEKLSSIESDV
Sequence of NMDA receptor (NMDAR) currents (Q00959 23-1464 limits assumed, other chains not shown): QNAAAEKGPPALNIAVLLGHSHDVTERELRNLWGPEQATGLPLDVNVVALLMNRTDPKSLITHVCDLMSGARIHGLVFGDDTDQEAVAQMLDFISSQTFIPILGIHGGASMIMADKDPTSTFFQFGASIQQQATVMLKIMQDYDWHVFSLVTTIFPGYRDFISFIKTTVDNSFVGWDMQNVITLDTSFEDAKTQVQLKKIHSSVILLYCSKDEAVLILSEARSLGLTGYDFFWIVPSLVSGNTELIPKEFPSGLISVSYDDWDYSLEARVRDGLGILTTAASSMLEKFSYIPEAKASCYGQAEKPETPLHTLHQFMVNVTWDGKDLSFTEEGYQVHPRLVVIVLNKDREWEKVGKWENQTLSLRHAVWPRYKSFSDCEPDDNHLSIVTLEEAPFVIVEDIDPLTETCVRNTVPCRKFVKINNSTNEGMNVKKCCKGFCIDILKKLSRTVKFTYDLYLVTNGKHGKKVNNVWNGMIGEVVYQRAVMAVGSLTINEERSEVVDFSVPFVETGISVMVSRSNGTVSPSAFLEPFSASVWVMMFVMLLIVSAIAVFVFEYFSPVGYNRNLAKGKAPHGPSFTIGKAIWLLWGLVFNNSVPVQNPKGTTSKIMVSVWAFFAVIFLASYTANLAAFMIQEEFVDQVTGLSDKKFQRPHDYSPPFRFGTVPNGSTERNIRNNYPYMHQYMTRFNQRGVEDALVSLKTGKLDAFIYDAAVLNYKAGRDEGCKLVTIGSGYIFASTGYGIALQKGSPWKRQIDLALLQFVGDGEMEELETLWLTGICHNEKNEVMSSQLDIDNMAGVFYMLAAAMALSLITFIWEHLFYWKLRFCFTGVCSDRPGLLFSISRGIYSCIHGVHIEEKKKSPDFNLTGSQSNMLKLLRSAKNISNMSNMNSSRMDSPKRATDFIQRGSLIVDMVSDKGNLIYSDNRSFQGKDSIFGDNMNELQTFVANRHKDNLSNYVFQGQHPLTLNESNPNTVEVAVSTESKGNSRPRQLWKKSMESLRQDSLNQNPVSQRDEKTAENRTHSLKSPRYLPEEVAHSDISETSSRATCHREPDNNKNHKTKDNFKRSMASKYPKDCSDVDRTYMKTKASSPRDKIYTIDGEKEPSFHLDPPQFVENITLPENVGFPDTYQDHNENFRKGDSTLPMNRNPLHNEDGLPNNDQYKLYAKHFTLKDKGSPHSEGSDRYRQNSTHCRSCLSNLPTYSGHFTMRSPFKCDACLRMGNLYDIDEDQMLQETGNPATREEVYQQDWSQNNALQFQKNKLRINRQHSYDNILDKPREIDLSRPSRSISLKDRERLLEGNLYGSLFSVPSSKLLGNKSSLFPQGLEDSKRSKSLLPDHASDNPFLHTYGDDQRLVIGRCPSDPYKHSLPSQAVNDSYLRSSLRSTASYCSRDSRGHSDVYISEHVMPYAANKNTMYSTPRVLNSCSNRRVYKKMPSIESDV

Question: Which “rate constant of dissociation from NMDAR channels” value (NMDAR channels) does the source give for `C[C@]12N[C@H](Cc3ccccc31)c1ccccc12` [MK-801] here?
Answer: Its value is roughly 0.003 s⁻¹.

Question: Which IC50 (NCX) does the source give for `CCOc1ccc(Oc2ccc(OCc3cc(F)ccc3F)cc2)c(N)c1` [SEA0400] here?
Answer: Its IC50 is 33 nM.

Question: And the “decrease of decay time constant versus control” value ([1]; 50 nM SEA0400, 1 mM Ca2+)?
Answer: The value was 2 fold.

Question: And the “effect on NMDAR currents in BAPTA-loaded neurons” value ([1]; 50 nM SEA0400, 1 mM external Ca2+, neurons loaded with BAPTA)?
Answer: Its value is “abolished the effect; also recorded: did not cause NMDAR inhibition”.

Question: What about the “voltage dependence of decrease of steady-state amplitude” value ([1]; 50 nM SEA0400, -70 mV versus +30 mV, 1 mM Ca2+) of the same molecule?
Answer: Its value is “did not depend on membrane voltage”.

Question: And the “effect on steady-state amplitude of NMDA-activated currents in Ca2+-free solution” value ([1]; 50 nM SEA0400, Ca2+ omitted from external solution, -70 mV)?
Answer: Its value is “abolished the effect; also recorded: did not cause any decrease”.

Question: What about the IC50 ([1]; 2 mM Ca2+, -70 mV, 100 µM NMDA + 30 µM Gly, steady state, read-out: IC50 for SEA0400 inhibition of NMDA-activated currents) of the same molecule?
Answer: Its IC50 is 27 nM and ~27 nM.

Question: What about the “decrease of steady-state amplitude of NMDAR currents (upper limit of effect)” value ([1]; SEA0400 itself, extracellular Ca2+ present) of the same molecule?
Answer: Its value is no more than 30%.

Question: What about the “decay time constant of NMDAR current from peak to steady state” value ([1]; in the presence of 50 nM SEA0400, 1 mM Ca2+, -70 mV) of the same molecule?
Answer: Its value is 2.0 ± 0.2 s.

Question: Which “rate constant of dissociation from NMDAR channels” value (NMDAR channels) does the source give for `c1ccc(C2(N3CCCCC3)CCCCC2)cc1` [phencyclidine] here?
Answer: Its value is “about 0.03 s^-1”.

Question: Which “change of fraction of current blocked in the presence of SEA0400” value (“change of fraction of current blocked” for short) ([1]; 1 mM Ca2+, -70 mV) does the source give for `CNCCCN1c2ccccc2CCc2ccccc21` [DES, desipramine] here?
Answer: Its value is “decreased”.

Question: What about the “increase of IC50 for NMDAR inhibition in the presence of SEA0400” value (“increase of IC50 for NMDAR inhibition” below) [1] of the same molecule?
Answer: Its value is roughly 16 fold.

Question: What about the “increase of IC50 for NMDAR inhibition” value ([1]; listed as desipramine) of the same molecule?
Answer: The value was “about 20 fold”.

Question: Which “change of fraction of current blocked” value ([1]; 1 mM Ca2+, -70 mV) does the source give for `CN(C)CCC=C1c2ccccc2CCc2ccccc21` [ATL, amitriptyline] here?
Answer: The value was “decreased”.

Question: And the “increase of IC50 for NMDAR inhibition” value [1]?
Answer: Its value is 23 fold.

Question: And the “increase of IC50 for NMDAR inhibition” value ([1]; listed as amitriptyline)?
Answer: The value was “about 20 fold”.

Question: With `N=C(N)SCCc1ccc(OCc2ccc([N+](=O)[O-])cc2)cc1` [KB-R7943] as the molecule, how does the “decrease of NMDAR currents” value (NMDAR currents) read?
Answer: The value was “about 60%”.

Question: And the “change of fraction of current blocked” value ([1]; 1 mM Ca2+, -70 mV)?
Answer: The value was “increased”.
